# Test results as given in paper PMC5936891, “A focused library synthesis and cytotoxicity of quinones derived from the natural product bolinaquinone” (Royal Society Open Science, 2018).
# “Also recorded” adds a separate entry of the source. Read-outs that look alike come from different tables or passages of the source.
# Tests used:
# [1] = test system: HT29 (colon carcinoma); experiment: MTT in vitro growth inhibition assay, HT29; type: cell-based; settings: Homo sapiens; for inhibition at 25 µM: HT-29, 25 µM of drug, 72 h, read-out: Percentage of Cell Growth Inhibition HT29; for GI50: HT-29, 72 h drug exposure
# Excerpt: (§1) With the desired bolinaquinone analogues 12–43 in hand, we examined their cytotoxicity against a panel of 11 tumour cell lines: HT29 (colon carcinoma), U87 and SJ-G2 (glioblastoma), MCF-7 (breast carcinoma), A2780 (ovarian carcinoma), H460 (lung carcinoma), A431 (skin carcinoma), Du145 (prostate carcinoma), BE2-C (neuroblastoma), MIA (pancreatic carcinoma), SMA (spontaneous murine astrocytoma) and a normal breast cell line (MCF10A). The inclusion of the MCF-10A cell line allowed a determination of a crude measure of relative toxicity while noting that the ultimate arbiter of toxicity requires in vivo evaluation. All analogues were initially screened at a 25 µM drug concentration.
# (§2) Stock solutions were prepared as follows and stored at −20°C: drugs were stored as 40 mM solutions in DMSO. All cell lines were cultured in a humidified atmosphere 5% CO2 at 37°C. The cancer cell lines were maintained in Dulbecco's modified Eagle's medium (DMEM) (Trace Biosciences, Australia) supplemented with 10% fetal bovine serum, 10 mM sodium bicarbonate, penicillin (100 IU ml^−1), streptomycin (100 µg ml^−1) and glutamine (4 mM). The non-cancer MCF10A cell line was cultured in DMEM:F12 (1 : 1) cell culture media, 5% heat-inactivated horse serum, supplemented with penicillin (50 IU ml^−1), streptomycin (50 µg ml^−1), 20 mM Hepes, L-glutamine (2 mM), epidermal growth factor (20 ng ml^−1), hydrocortisone (500 ng ml^−1), cholera toxin (100 ng ml^−1) and insulin (10 ug ml^−1).
# (§3) Cells in logarithmic growth were transferred to 96-well plates. Cytotoxicity was determined by plating cells in duplicate in 100 µl medium at a density of 2500–4000 cells per well. On day 0 (24 h after plating), when the cells were in logarithmic growth, 100 μl of medium with or without the test agent was added to each well. After 72 h, drug exposure growth inhibitory effects were evaluated using the MTT (3-[4,5-dimethylthiazol-2-yl]-2,5-diphenyl-tetrazolium bromide) assay and the absorbance read at 540 nm. Percentage growth inhibition was determined at a fixed drug concentration of 25 µM. A value of 100% is indicative of complete cell growth inhibition. Those analogues showing appreciable percentage growth inhibition underwent further dose–response analysis allowing for the calculation of a GI50 value. This value is the drug concentration at which cell growth is 50% inhibited based on the difference between the optical density values on day 0 and those at the end of drug exposure.
# [2] = test system: MCF-7 (breast carcinoma); experiment: MTT in vitro growth inhibition assay, MCF-7; type: cell-based; settings: Homo sapiens; for inhibition at 25 µM: MCF7, 25 µM of drug, 72 h, read-out: Percentage of Cell Growth Inhibition MCF-7; for GI50: MCF7, 72 h drug exposure
# Excerpt: as §1, §2, §3
# [3] = test system: U87 (glioblastoma); experiment: MTT in vitro growth inhibition assay, U87; type: cell-based; settings: for inhibition at 25 µM: 25 µM of drug, 72 h, read-out: Percentage of Cell Growth Inhibition U87; for GI50: 72 h drug exposure
# Excerpt: as §1, §2, §3
# [4] = test system: SJ-G2 (glioblastoma); experiment: MTT in vitro growth inhibition assay, SJ-G2; type: cell-based; settings: for inhibition at 25 µM: 25 µM of drug, 72 h, read-out: Percentage of Cell Growth Inhibition SJ-G2; for GI50: 72 h drug exposure
# Excerpt: as §1, §2, §3
# [5] = test system: SMA (spontaneous murine astrocytoma); experiment: MTT in vitro growth inhibition assay, SMA; type: cell-based; settings: Mus musculus; for inhibition at 25 µM: 25 µM of drug, 72 h, read-out: Percentage of Cell Growth Inhibition SMA; for GI50: 72 h drug exposure
# Excerpt: as §1, §2, §3
# [6] = test system: A431 (skin carcinoma); experiment: MTT in vitro growth inhibition assay, A431; type: cell-based; settings: Homo sapiens; for inhibition at 25 µM: A-431, 25 µM of drug, 72 h, read-out: Percentage of Cell Growth Inhibition A431; for GI50: A-431, 72 h, 72 h drug exposure
# Excerpt: as §1, §2, §3
# [7] = test system: H460 (lung carcinoma); experiment: MTT in vitro growth inhibition assay, H460; type: cell-based; settings: Homo sapiens; for inhibition at 25 µM: NCI-H460, 25 µM of drug, 72 h, read-out: Percentage of Cell Growth Inhibition H460; for GI50: NCI-H460, 72 h drug exposure
# Excerpt: as §1, §2, §3
# [8] = test system: Du145 (prostate carcinoma); experiment: MTT in vitro growth inhibition assay, Du145; type: cell-based; settings: Homo sapiens; for inhibition at 25 µM: DU-145, 25 µM of drug, 72 h, read-out: Percentage of Cell Growth Inhibition Du145; for GI50: DU-145, 72 h, 72 h drug exposure
# Excerpt: as §1, §2, §3
# [9] = test system: BE2-C (neuroblastoma); experiment: MTT in vitro growth inhibition assay, BE2-C; type: cell-based; settings: Homo sapiens, BE(2)-C, 72 h; for inhibition at 25 µM: 25 µM of drug, read-out: Percentage of Cell Growth Inhibition BE2-C; for GI50: 72 h drug exposure
# Excerpt: as §1, §2, §3
# [10] = test system: MIA (pancreatic carcinoma); experiment: MTT in vitro growth inhibition assay, MIA; type: cell-based; settings: for inhibition at 25 µM: 25 µM of drug, 72 h, read-out: Percentage of Cell Growth Inhibition MIA; for GI50: 72 h drug exposure
# Excerpt: as §1, §2, §3
# [11] = test system: MCF10A (normal breast cell line); experiment: MTT in vitro growth inhibition assay, MCF10A; type: cell-based; settings: Homo sapiens, MCF-10A; for inhibition at 25 µM: 25 µM of drug, 72 h, read-out: Percentage of Cell Growth Inhibition MCF10A; for GI50: normal breast cell line, 72 h drug exposure
# Excerpt: as §1, §2, §3
# [12] = test system: A2780 (ovarian carcinoma); experiment: MTT in vitro growth inhibition assay, A2780; type: cell-based; settings: Homo sapiens; for inhibition at 25 µM: 25 µM of drug, 72 h, read-out: Percentage of Cell Growth Inhibition A2780; for GI50: 72 h drug exposure
# Excerpt: as §1, §2, §3
# [13] = test system: panel of 11 cancer cell lines and one normal cell line; experiment: Cytotoxicity across the whole cell line panel (MTT); type: cell-based; settings: for activity at the initial screening concentration (to proceed to GI50 determination): 25 µM single dose
# Excerpt: as §1, §2, §3
# [14] = average over the cell line panel, read-out: average GI50
# [15] = span over the cell line panel, read-out: GI50 values across the cell lines examined (range)
Compound,melting point [°C],inhibition at 25 µM [1] [%],GI50 [1] [µM],inhibition at 25 µM [2] [%],GI50 [2] [µM],inhibition at 25 µM [3] [%],GI50 [3] [µM],inhibition at 25 µM [4] [%],GI50 [4] [µM],inhibition at 25 µM [5] [%],GI50 [5] [µM],inhibition at 25 µM [6] [%],GI50 [6] [µM],inhibition at 25 µM [7] [%],GI50 [7] [µM],inhibition at 25 µM [8] [%],inhibition at 25 µM [9] [%],inhibition at 25 µM [10] [%],inhibition at 25 µM [11] [%],inhibition at 25 µM [12] [%],further results
"COC1=CC(=O)C(OC)=C(c2ccc(OC)c(OC)c2)C1=O [compound 23, 2,5-Dimethoxy-3-(3,4-dimethoxyphenyl)cyclohexa-2,5-diene-1,4-dione]",135 to 137,> 100,11 ± 0.17,> 100,6.1 ± 1.1,> 100,9.5 ± 1.2,> 100,12 ± 0.67,> 100,3.9 ± 0.54,95 ± 4,13 ± 0.58,77 ± 4,15 ± 2,81 ± 4,> 100,> 100,62 ± 4,> 100,"GI50 [8]: 13 ± 0.58 µM; GI50 [9]: 3 ± 0.35 µM; GI50 [10]: 4.8 ± 0.91 µM; GI50 [11]: 19 ± 1.3 µM; GI50 [12]: 3.8 ± 0.75 µM; cytotoxicity spectrum across the panel [13]: broad-spectrum active; GI50 [13, 14]: 10.2 µM; GI50 [13, 15]: 3 to 15 µM"
"COC1=CC(=O)C(OC)=C(c2ccc(-c3ccccc3)cc2)C1=O [compound 27, 3-Biphenyl-4-yl-2,5-dimethoxycyclohexa-2,5-diene-1,4-dione]",178 to 180,76 ± 2,4.3 ± 0.1,65 ± 2,4 ± 0.1,54 ± 5,19 ± 2.3,38 ± 3,31 ± 0.9,61 ± 6,19 ± 4.2,78 ± 1,5.7 ± 0.45,48 ± 3,19 ± 2.5,57 ± 7,98 ± 4,70 ± 1,63 ± 1,70 ± 3,"GI50 [8]: 4.1 ± 0.1 µM; GI50 [9]: 4.1 ± 0.1 µM; GI50 [10]: 4.5 ± 0.13 µM; GI50 [11]: 3.9 ± 0.1 µM; GI50 [12]: 4.3 ± 0.1 µM; GI50 [13, 14]: 10.2 µM; GI50 [13, 15]: 3.9 to 19 µM"
"COC1=CC(=O)C(OC)=C(c2cc3ccccc3s2)C1=O [compound 26, 3-(Benzo[b]thiophen-2-yl)-2,5-dimethoxycyclohexa-2,5-diene-1,4-dione]",205 to 207,70 ± 2,,79 ± 4,,42 ± 5,,42 ± 3,,60 ± 3,,75 ± 1,,49 ± 8,,66 ± 5,72 ± 3,59 ± 2,65 ± 4,61 ± 1,activity at the initial screening concentration (to proceed to GI50 determination) [13]: not sufficiently active; also recorded: did not proceed to GI50 determination
"COC1=CC(=O)C(OC)=C(c2cc(OC)ccc2OC)C1=O [compound 21, 2,5-Dimethoxy-3-(2,5-dimethoxyphenyl)cyclohexa-2,5-diene-1,4-dione]",,16 ± 4,,13 ± 6,,14 ± 2,,16 ± 7,,26 ± 4,,12 ± 3,,17 ± 7,,17 ± 5,49 ± 11,15 ± 2,< 10,26 ± 9,activity at the initial screening concentration (to proceed to GI50 determination) [13]: not sufficiently active
"COC1=CC(=O)C(OC)=C(c2cccc(C)c2)C1=O [compound 14, 2,5-Dimethoxy-3-m-tolylcyclohexa-2,5-diene-1,4-dione]",74 to 77,12 ± 3,,22 ± 11,,21 ± 7,,38 ± 18,,36 ± 7,,26 ± 5,,19 ± 2,,28 ± 8,80 ± 10,24 ± 7,16 ± 5,59 ± 13,activity at the initial screening concentration (to proceed to GI50 determination) [13]: not sufficiently active
"CCCCc1ccc(C2=C(OC)C(=O)C=C(OC)C2=O)cc1 [compound 15, 3-(4-Butylphenyl)-2,5-dimethoxycyclohexa-2,5-diene-1,4-dione]",,< 10,,19 ± 7,,10 ± 7,,12 ± 6,,25 ± 10,,< 10,,< 10,,< 10,41 ± 18,< 10,< 10,39 ± 14,activity at the initial screening concentration (to proceed to GI50 determination) [13]: not sufficiently active
"COC1=C(c2ccccc2)C(=O)C(OC)=C(c2ccccc2)C1=O [compound 30, 2,5-Dimethoxy-3,6-diphenylcyclohexa-2,5-diene-1,4-dione]",150 to 152,73 ± 4,16 ± 1.2,> 100,7 ± 0.98,52 ± 5,30 ± 1.8,> 100,12 ± 0.9,> 100,6.2 ± 0.3,59 ± 6,> 50,26 ± 8,> 50,35 ± 5,> 100,63 ± 5,> 100,> 100,GI50 [8]: > 50 µM; GI50 [9]: 7 ± 0.1 µM; GI50 [10]: 20 ± 2 µM; GI50 [11]: 8.9 ± 1.6 µM; GI50 [12]: 5.9 µM
"CCCCc1ccc(C2=C(OC)C(=O)C(c3ccc4ccccc4c3)=C(OC)C2=O)cc1 [compound 35, 2-(4-Butylphenyl)-3,6-dimethoxy-5-(naphthalene-3-yl)cyclohexa-2,5-diene-1,4-dione]",134 to 136,59 ± 3,21 ± 2.6,87 ± 1,10 ± 0.6,38 ± 2,42 ± 2.8,67 ± 4,16 ± 2.2,79 ± 5,8.2 ± 0.8,49 ± 3,26 ± 4.8,61 ± 3,19 ± 0.6,56 ± 2,61 ± 2,61 ± 2,47 ± 5,66 ± 1,GI50 [8]: 19 ± 1 µM; GI50 [9]: 23 ± 3.2 µM; GI50 [10]: 18 ± 1.2 µM; GI50 [11]: 26 ± 4.8 µM; GI50 [12]: 14 ± 2 µM
